From patent US20090036448A1, “PYRIMIDINE DERIVATIVES AND METHODS OF TREATMENT RELATED TO THE USE THEREOF” (TAISHO PHARMECUTICAL CO., LTD., priority 2004, published 2009)
Structures can show the parent of a compound that is named as a salt.

These compounds were tested against MCH receptor (Homo sapiens, UniProt Q99705) (assay: FLIPR/FDSS6000 functional assay: intracellular Ca2+ changes evoked by MCH). Details: class by percent of control at 10^−7 M or by IC50; antagonist activity, 50 nM of MCH; read-out: class.
Type: cell-based
Description: Subsequently, a functional based assay was used to confirm the lead hits, referred to as FLIPR™ (the Fluorometric Imaging Plate Reader) and FDSS6000™ (Functional Drug Screening System). This assay utilized a non-endogenous, constitutively active version of the MCH receptor.
The FLIPR and FDSS assays are able to detect intracellular Ca^2+ concentration in cells, which can be utilized to assess receptor activation and determine whether a candidate compound is an, for example, antagonist, inverse agonist or agonist to a Gq-coupled receptor. The concentration of free Ca^2+ in the cytosol of any cell is extremely low, whereas its concentration in the extracellular fluid and endoplasmic reticulum (ER) is very high. Thus, there is a large gradient tending to drive Ca^2+ into the cytosol across both the plasma membrane and ER. The FLIPR™ and FDSS6000™ systems (Molecular Devices Corporation, HAMAMATSU Photonics K.K.) are designed to perform functional cell-based assays, such as the measurement of intracellular calcium for high-throughput screening. The measurement of fluorescent is associated with calcium release upon activation of the Gq-coupled receptors.
Fluorometric Imaging Plate Reader system was used to allow for rapid, kinetic measurements of intracellular fluorescence in 96 well microplates (or 384 well microplates). Simultaneous measurements of fluorescence in all wells can be made by FLIPR or FDSS6000™ every second with high sensitivity and precision. These systems are ideal for measuring cell-based functional assays such as monitoring the intracellular calcium fluxes that occur within seconds after activation of the Gq coupled receptor.
Briefly, the cells are seeded into 96 well at 5.5×10^4 cells/well with complete culture media (Dulbecco's Modified Eagle Medium with 10% fetal bovine serum, 2 mM L-glutamine, 1 mM sodium pyruvate and 0.5 mg/mL G418, pH 7.4) for the assay next day. On the day of assay, the media is removed and the cells are incubated with 100 μl of loading buffer (4 μM Fluo-4-AM in complete culture media containing 2.5 mM Probenicid, 0.5 mg/ml and 0.2% bovine serum albumin) in 5% CO2 incubator at 37° C. for 1 hr. The loading buffer is removed, and the cells are washed with wash buffer (Hank's Balanced Salt Solution containing 2.5 mM Probenicid, 20 mM HEPES, 0.5 mg/mL and 0.2% bovine serum albumin, pH 7.4). One hundred fifty μl of wash buffer containing various concentrations of test compound is added to the cells, and the cells are incubated in 5% CO2 incubator at 37° C. for 30 min. Fifty μl of wash buffer containing various concentration of MCH are added to each well, and transient changes in [Ca^2+]i evoked by MCH are monitored using the FLIPR or FDSS in 96 well plates at Ex. 488 nm and Em. 530 nm for 290 second. When antagonist activity of compound is tested, 50 nM of MCH is used.
Use of FLIPR™ and FDSS6000™ can be accomplished by following manufacturer's instruction (Molecular Device Corporation and HAMAMATSU Photonics K.K.).
With `Cc1nc(N[C@H]2CC[C@@H](NC(=O)c3ccc(F)c(Cl)c3)CC2)cc(N2CCCC2)n1` [Example 40, 3-Chloro-4-fluoro-N-{cis-4-[(2-methyl-6-pyrrolidin-1-ylpyrimidin-4-yl)amino]cyclohexyl}-benzamide hydrochloride] the IC50 was under 50 nM.
`Cc1nc(N[C@H]2CC[C@@H](NC(=O)c3ccc(F)c(Cl)c3)CC2)cc(N2CCN(C)CC2)n1` [Example 41, 3-Chloro-4-fluoro-N-(cis-4-{[2-methyl-6-(4-methylpiperazin-1-yl)pyrimidin-4-yl]amino}-cyclohexyl)benzamide dihydrochloride] was tested, and the IC50 was over 200 nM.
`CNc1cc(N[C@H]2CC[C@@H](NC(=O)c3ccc(F)c(Cl)c3)CC2)nc(C)n1` [Example 31, 3-Chloro-4-fluoro-N-(cis-4-{[2-methyl-6-(methylamino)pyrimidin-4-yl]amino}cyclohexyl)-benzamide hydrochloride] showed an IC50 of 50 to 200 nM.
`Cc1nc(N[C@H]2CC[C@@H](C(=O)Nc3ccc(F)c(F)c3)CC2)cc(N(C)C)n1` [Example 192, cis-N-(3,4-Difluorophenyl)-4-{[6-(dimethylamino)-2-methylpyrimidin-4-yl]amino}cyclohexanecarboxamide hydrochloride] was tested, and the IC50 was 50 to 200 nM.
With `CNc1cc(N[C@H]2CC[C@@H](NC(=O)c3cc(F)c(F)c(F)c3)CC2)nc(C)n1` [Example 169, 3,4,5-Trifluoro-N-(cis-4-{[2-methyl-6-(methylamino)pyrimidin-4-yl]amino}cyclohexyl)-benzamide hydrochloride] the IC50 was 50 to 200 nM.
`Cc1nc(N[C@H]2CC[C@@H](NC(=O)c3ccc(Cl)c(Cl)c3)CC2)cc(N(C)C)n1` [Example 8, 3,4-Dichloro-N-(cis-4-{[6-(dimethylamino)-2-methylpyrimidin-4-yl]amino}cyclohexyl)-benzamide hydrochloride] gave an IC50 of under 50 nM.
With `Cc1nc(N[C@H]2CC[C@@H](CNC(=O)c3ccc(F)c(F)c3)CC2)cc(N(C)C)n1` [Example 29, N-[(cis-4-{[6-(Dimethylamino)-2-methylpyrimidin-4-yl]amino}cyclohexyl)methyl]-3,4-difluorobenzamide hydrochloride] the IC50 was over 200 nM.
`Cc1nc(N[C@H]2CC[C@@H](NC(=O)c3cc(Cl)cc(Cl)c3)CC2)cc(N(C)C)n1` [Example 21, 3,5-Dichloro-N-(cis-4-{[6-(dimethylamino)-2-methylpyrimidin-4-yl]amino}cyclohexyl)-benzamide hydrochloride] showed an IC50 of under 50 nM.
With `Cc1nc(N[C@H]2CC[C@@H](NC(=O)c3ccc(Cl)cc3)CC2)cc(N(C)C)n1` [Example 25, 4-Chloro-N-(cis-4-{[6-(dimethylamino)-2-methylpyrimidin-4-yl]amino}cyclohexyl)-benzamide hydrochloride] the IC50 was 50 to 200 nM.
Work on `O=C(N[C@H]1CC[C@@H](Nc2ncnc3[nH]ccc23)CC1)c1ccc(F)c(Cl)c1` [Example 186, 3-Chloro-4-fluoro-N-[cis-4-(7H-pyrrolo[2,3-d]pyrimidin-4-ylamino)cyclohexyl]benzamide hydrochloride] yielded an IC50 of over 200 nM.
Work on `Cc1nc(N[C@H]2CC[C@@H](C(=O)Nc3cc(Cl)cc(Cl)c3)CC2)cc(N(C)C)n1` [Example 195, cis-N-(3,5-Dichlorophenyl)-4-{[6-(dimethylamino)-2-methylpyrimidin-4-yl]amino}-cyclohexanecarboxamide hydrochloride] yielded an IC50 of over 200 nM.
Work on `CCn1ccc2c(N[C@H]3CC[C@@H](NC(=O)c4ccc(F)c(Cl)c4)CC3)ncnc21` [Example 189, 3-Chloro-N-{cis-4-[(7-ethyl-7H-pyrrolo[2,3-d]pyrimidin-4-yl)amino]cyclohexyl}-4-fluorobenzamide hydrochloride] yielded an IC50 of over 200 nM.
Compound `Cc1nc(N[C@H]2CC[C@@H](NC(=O)c3cc(F)c(F)c(F)c3)CC2)cc(N(C)c2ccccc2)n1` [Example 174, 3,4,5-Trifluoro-N-[cis-4-({2-methyl-6-[methyl(phenyl)amino]pyrimidin-4-yl}amino)-cyclohexyl]benzamide hydrochloride] has an IC50 of over 200 nM.
